One data set relates to dopamine release. The settings on record: cited from earlier work.
The target in data set [1] is T1, α7-5HT3 (Homo sapiens, UniProt P36544).
T1 construct: expressed in transfected cells; host or cells: HEK-293 (transient transfection)
Kind of data set: agonist potency/activity at unmodified α7-5HT3 chimeric channel. In kind it is cell-based.

For data set [2] the following is noted: rat; estimated; cited from earlier work.
The conditions of data set [3]: cited from earlier work.
In another data set the target is T2, α7-GlyR (Homo sapiens, UniProt P36544).
T2 construct: expressed in transfected cells; host or cells: HEK-293 (transient transfection)
T2 sequence (P36544 with tags, fused parts or gaps): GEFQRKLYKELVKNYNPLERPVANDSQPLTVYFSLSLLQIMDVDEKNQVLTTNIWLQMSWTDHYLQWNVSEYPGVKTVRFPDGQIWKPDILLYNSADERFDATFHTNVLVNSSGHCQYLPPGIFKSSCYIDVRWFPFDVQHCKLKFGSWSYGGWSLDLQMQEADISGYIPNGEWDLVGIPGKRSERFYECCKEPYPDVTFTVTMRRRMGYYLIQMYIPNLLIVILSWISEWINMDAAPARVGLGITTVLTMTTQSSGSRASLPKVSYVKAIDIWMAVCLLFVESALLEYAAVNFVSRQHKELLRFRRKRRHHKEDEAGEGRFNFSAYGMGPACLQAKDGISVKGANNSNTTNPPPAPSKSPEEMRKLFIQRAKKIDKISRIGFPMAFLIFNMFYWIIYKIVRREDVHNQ
Description: agonist potency/activity at unmodified α7-GlyR chimeric channel. The format is cell-based.

For data set [4], the target named is T3, α7-5HT3 (Homo sapiens, UniProt P36544, M226I/T225I).
T3 construct: expressed in transfected cells; host or cells: HEK-293 (transient transfection)
T3 sequence (P36544 with tags, fused parts or gaps T225I/M226I): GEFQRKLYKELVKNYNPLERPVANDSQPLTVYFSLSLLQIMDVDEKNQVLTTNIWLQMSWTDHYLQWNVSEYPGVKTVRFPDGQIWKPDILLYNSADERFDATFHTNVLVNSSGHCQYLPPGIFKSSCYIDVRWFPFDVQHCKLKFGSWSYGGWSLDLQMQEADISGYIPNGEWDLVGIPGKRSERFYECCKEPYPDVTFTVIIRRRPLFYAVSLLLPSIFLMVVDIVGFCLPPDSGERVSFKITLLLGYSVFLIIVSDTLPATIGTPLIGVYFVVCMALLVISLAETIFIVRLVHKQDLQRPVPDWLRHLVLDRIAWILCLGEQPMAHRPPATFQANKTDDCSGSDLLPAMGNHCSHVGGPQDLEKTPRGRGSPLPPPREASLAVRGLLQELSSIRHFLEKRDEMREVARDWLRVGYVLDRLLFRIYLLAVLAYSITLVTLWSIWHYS
Kind of data set: agonist potency/activity at unmodified α7-5HT3 chimeric channel. In kind it is cell-based. The settings on record: agonist activity at unmodified α7-5HT3; read-out: EC50α7-5HT3.

Data set [5] deals with hippocampal neurons expressing Gpr40. Kind of data set: patch clamp electrophysiology of hippocampal neurons expressing Gpr40. The format is cell-based, rat. The following applies: 0.2 μM; FIG. 12A. The protocol: For engineered neuromodulation of neurons by fatty acids, a fatty acid […] (Gpr40) was expressed in hippocampal neurons. Neuron firing was increased in response to a fatty acid, palmitate (20 μM), as well as a synthetic Gpr40 agonist, GW9508 (0.2 μM) (FIG. 12A, 12B). For testing, embryonic rat hippocampal neurons are transfected by electroporation with a plasmid expressing GPR40 and an mCherry fluorescent protein. Then cells are plated on poly-D-lysine coated 13 mm dia #1 glass coverslips in the wells of a 24 well plates at 50,000 cells/well. Each well receives 60 μL of cell suspension plus 60 μL of NbActiv4 medium (BrainBits) and are incubated at 37 C in 5% CO2 for 4 hours for initial cell attachment. NbActiv4 media (1 mL) is then added to each well and cultures kept for the duration of the experiment. Weekly medium changes are done by replacing 0.5 mL medium from each well with fresh NbActiv4. Fluorescent cells are recorded by patch clamp electrophysiology while palmitate or GW9508 are perfused over the cells intermittently in a saline extracellular solution.
(Patch clamp records ionic current or voltage across a cell membrane.)

Where two headings read alike, the source gives them in different places.

The source of these data is patent US20240002463A1, “CHEMOGENETIC RECEPTORS AND METHODS OF MAKING AND USING” (Howard Hughes Medical Institute, priority 2022, published 2024).

T1 sequence (P36544 with tags, fused parts or gaps T225I/M226I): as above

In the case of `COC(=O)C(c1ccccc1)C1CCCCN1` (centres unmarked) [methylphenidate, Methylphenidate], in the data set on dopamine release (striatum, read-out: EC50 for release of DA in the striatum), the EC50 is 10000 nM. Consider `CNC(C)C(=O)c1ccc2c(c1)OCO2` (centres unmarked) [methylone, Methylone], for which the EC50 in the data set with dopamine release (read-out: EC50 for DA release) was roughly 400 nM. Consider `CC(N)Cc1ccccc1` (centres unmarked) [amphetamine, Amphetamine], for which the EC50 in the data set on dopamine release (read-out: EC50 for DA release) was 500 nM. `CNC(C)Cc1ccc2c(c1)OCO2` (centres unmarked) [MDMA, 3,4-Methylenedioxy-methamphetamine]: the “agonist activity at unmodified chimeric receptor α7-5HT3” value on α7-5HT3 [1] was “do not show agonist activity”. In the case of `COC(=O)[C@H]1[C@@H](OC(=O)c2ccccc2)C[C@@H]2CC[C@H]1N2C` [Cocaine], the “brain concentration maintained by self-administration” value in data set [2] is 10000 to 20000 nM. `CN1CCCC1c1cccnc1` (centres unmarked) [Nicotine]: in the data set on dopamine release (nucleus accumbens, read-out: EC50 dopamine release in the nucleus accumbens), the EC50 was 480 nM. On to `CN[C@@H](C)Cc1ccccc1` [methamphetamine, Methamphetamine], for which the “agonist activity at unmodified chimeric receptor α7-5HT3” value on α7-5HT3 [1] is on record as “do not show agonist activity”. The entries for the “blood concentration during self-administration” value in data set [3] (in females) and in data set [3] (in males) were 900 nM and 700 nM, respectively. With `C[N+](C)(C)CCO` [Choline], the EC50 was determined as 103000 nM on α7-GlyR and 37000 nM at α7-5HT3 [4]. `CCCC(C(=O)c1ccc2c(c1)OCO2)N1CCCC1` (centres unmarked) [MDPV, methylenedioxypyrvalerone]: in the data set on dopamine release (read-out: EC50 for DA release), the EC50 is 100 nM. For the compound `CNC(C)C(=O)c1ccc(C)cc1` (centres unmarked) [mephedrone, Mephedrone], in the data set with dopamine release (read-out: EC50 for DA release), the EC50 was roughly 300 nM. Take `O=C(O)CCc1ccc(NCc2cccc(Oc3ccccc3)c2)cc1` [GW9508]: in data set [5], the neuron firing entry is listed as “increased”.
